Results taken from patent US7867750B2, “Method for anaerobic degradation of fuel oxygenates and similar compounds” (Rutgers, The State University of New Jersey, priority 2006, dated 2011).
Entries after “also recorded” stand apart in the source; their conditions may differ.

How the values were obtained:
[1] = MTBE loss in abiotic controls (methanogenic and sulfate-reducing media); assay type: physicochemical
Description: To examine the carbon isotope fractionation during anaerobic MTBE degradation, eight batch experiments are set up. Four serum bottles, each containing 100 ml of sulfate-reducing AK enrichment, are prepared as described above. Sodium molybdate (20 mM), a specific inhibitor of sulfate reduction, is added to two sulfate-reducing AK cultures. The two remaining cultures are kept under conditions promoting sulfate reduction. From the CC enrichment, two of the 100-ml cultures are prepared for each methanogenic and sulfate-reducing enrichment. Each culture had been enriched individually from separate CC sediment microcosms and had never been combined. Methanogenic and sulfate-reducing media are used as abiotic controls. Anaerobic MTBE stock solution is added to all live enrichments and abiotic controls to a final concentration of 25 to 30 mg liter^−1. […] The headspace MTBE concentrations of the cultures are monitored over time. […]
The concentration of MTBE is determined by a static headspace method. A 100-μl headspace sample is analyzed for MTBE with a Hewlett-Packard 5890 gas chromatograph (GC) equipped with a DB1 column (0.53 mm by 30 m; J&W Scientific, Folsom, Calif.) and a flame ionization detector with He as the carrier gas. […] For quantification, external aqueous standards of 3.0, 9.0, 15.0, and 30.0 mg liter^−1 for each compound are used. […]

MTBE-utilizing culture [2] = assay: Effect of methoxylated aromatic compounds as co-substrates on MTBE utilization; assay type: cell-based; conditions: for lag period of MTBE utilization: 80 μM co-substrate added with MTBE; for effect on MTBE utilization/degradation rate: 80 μM co-substrate, first spiking; for effect on MTBE degradation rate: repeated spiking with MTBE + O-methyl aryl ether
[3] = system: sulfate-reducing Arthur Kill enrichment; assay: Anaerobic MTBE biodegradation and carbon isotope fractionation, batch experiment; assay type: cell-based; conditions: 20 mM sodium molybdate, inhibitor of sulfate reduction
[4] = system: Coronado Cays sediment microcosms (methanogenic and sulfate-reducing); assay: Development of MTBE-degrading enrichments from Coronado Cays sediment microcosms; assay type: cell-based; conditions: sediment with 5 mM lactate, sodium molybdate present
MTBE-utilizing culture [5] = assay: MTBE utilization in the presence of various concentrations of syringate; assay type: cell-based

COC(C)(C)C [MTBE, Methyl tert-butyl ether]
MTBE loss in abiotic controls ([1]; both CC experiments, over 60 days): < 10% | MTBE lost in abiotic controls ([1]; end of the Arthur Kill experiment): 13%

COc1ccccc1O [guaiacol]
lag period of MTBE utilization (MTBE-utilizing culture [2]): comparable to the culture receiving MTBE alone | effect on MTBE utilization/degradation rate (MTBE-utilizing culture [2]): adverse effect on MTBE degradation; also recorded: more severe than that of vanillate; also recorded: decrease | effect on MTBE degradation rate (MTBE-utilizing culture [2]): increased rate of degradation

[Na+].[Na+].[O]=[Mo](=[O])([O-])[O-] [molybdate, sodium molybdate]
effect on MTBE utilization rate [3]: decreases drastically | effect on sulfate reduction [4]: No significant loss of sulfate

COc1cc(C(=O)O)cc(OC)c1O [syringate, syringic acid]
effect on MTBE utilization (MTBE-utilizing culture [5]; 50 μM syringate): enhances MTBE utilization | time in which MTBE is utilized (MTBE-utilizing culture [5]; 50 μM syringate as co-substrate): less than 80 days | effect on MTBE utilization (MTBE-utilizing culture [5]; 100 μM syringate): enhances MTBE utilization | effect on MTBE utilization (MTBE-utilizing culture [5]; 500 μM syringate): slightly increases MTBE-degrading activity | effect on MTBE utilization (MTBE-utilizing culture [5]; 750 μM syringate): slight inhibitory effect on MTBE utilization | effect on MTBE utilization (MTBE-utilizing culture [5]; 1000 μM syringate): limited MTBE utilization | lag period of MTBE utilization (MTBE-utilizing culture [2]): 55 days | effect on MTBE utilization/degradation rate (MTBE-utilizing culture [2]): enhances the MTBE utilization rate | effect on MTBE utilization/degradation rate (MTBE-utilizing culture [2]; listed as syringic acid): increased the degradation rate | effect on MTBE degradation rate (MTBE-utilizing culture [2]): increased rate of degradation

COc1cc(C(=O)O)ccc1O [vanillate, vanillic acid]
lag period of MTBE utilization (MTBE-utilizing culture [2]): comparable to the culture receiving MTBE alone | effect on MTBE utilization/degradation rate (MTBE-utilizing culture [2]): adverse effect on MTBE degradation; also recorded: decrease | effect on MTBE degradation rate (MTBE-utilizing culture [2]): increased rate of degradation
